{
  "source": "patent US9700578B2",
  "about": "“Use of nitrite salts for the treatment of cardiovascular conditions” (The United States of America as represented by the …, priority 2003, dated 2017)",
  "key": {"[1]": {"system": "aortic ring preparations", "conditions": "cited from earlier work"}, "[2]": {"experiment": "Sodium nitrite infusion into the brachial artery, forearm blood flow by venous-occlusion plethysmography", "conditions": "human, in vivo", "from_the_text": "(§1) The protocol was approved by the Institutional Review Board of the National Heart, Lung and Blood Institute, and informed consent was obtained from all volunteer subjects. […] An additional 10 subjects returned three-six months later for a second series of experiments with low dose nitrite infusion. […] No volunteer subject was allowed to take any medication (oral contraceptive agents allowed), vitamin supplements, herbal preparations, nutriceuticals or other “alternative therapies” for at least one month prior to study and were not be allowed to take aspirin for one week prior to study.\n(§2) Brachial artery and antecubital vein catheters were placed into the arm, with the intraarterial catheter connected to a pressure transducer for blood pressure measurements and an infusion pump delivering normal saline at 1 mL/min. After 20 minutes of rest, baseline arterial and venous blood samples were obtained and forearm blood flow measurements were made by strain gauge venous-occlusion plethysmography, as previously reported (Panza et al., Circulation, 87, 1468-74, 1993). A series of 7 blood flow measurements were averaged for each blood flow determination. A series of measurements termed Parts I and II were performed in randomized order to minimize a time effect on the forearm blood flow response during nitrite infusion.\n(§3) Part I: Following 20 minutes of 0.9% NaCl (saline) solution infusion at 1 mL/min into the brachial artery, arterial and venous blood samples were obtained for the assays described below and forearm blood flow measured. Exercise was performed by repetitive hand-grip at one-third of the predetermined maximum grip strength using a hand-grip dynamometer (Technical Products Co.) (Gladwin et al., Proc Natl Acad Sci USA, 97, 9943-8, 2000; Gladwin et al., Proc Natl Acad Sci USA, 97, 11482-11487, 2000; Cannon et al., J Clin Invest, 108, 279-87, 2001). Each contraction lasted for 10 seconds followed by relaxation for 5 seconds. Following 5 minutes of exercise, forearm blood flow measurements were obtained during relaxation phases of exercise, and arterial and venous samples collected. Following a 20-minute rest period with continued infusion of saline into the brachial artery, repeated baseline blood samples and forearm blood flow measurements were obtained. L-NMMA was then infused at a rate of 1 mL/min (8 μmol/min) into the brachial artery. Following 5 minutes of L-NMMA infusion, forearm blood flow was measured, and arterial and venous blood samples obtained. Forearm exercise was then initiated in that arm during continued L-NMMA infusion. Forearm blood flow was measured and blood samples obtained after 5 minutes of exercise during continued L-NMMA infusion (FIG. 1).\n(§4) Part II: After a 30 minute rest period with continued infusion of saline, baseline measurements were obtained, the saline infusion was then stopped, and infusion of nitrite (NaNO2 36 μmol/ml in 0.9% saline) at 1 ml/min was started. […] For the final 9 subjects studied, 0.01-0.03 mM sodium bicarbonate was added to the normal saline, so as to titrate pH to 7.0-7.4. The nitrite solution was light protected and nitrite levels and free NO gas in solution measured by reductive chemiluminescence after all experiments (Gladwin et al., J Biol Chem, 21, 21, 2002)."}, "[3]": {"system": "forearm circulation", "experiment": "Sodium nitrite infusion into the brachial artery, forearm blood flow by venous-occlusion plethysmography", "from_the_text": "as §1, §2, §3, §4"}, "[4]": {"system": "hepatic ischemia-reperfusion injury", "experiment": "Hepatic ischemia-reperfusion (I/R) injury", "type": "in vivo, mice", "procedure": "Carboxy-PTIO [2-(4-Carboxyphenyl)-4,4,5,5-tetramethylimidazoline-1-oxyl-3-oxide potassium salt], a direct intravascular NO scavenger, was utilized to inhibit NO dependent effects following hepatic I/R injury. Carboxy-PTIO (Alexis Biochemicals) was dissolved in phosphate buffered saline and administered intravenously at a dose of 1 mg/Kg in a volume of 50 μL at 30 minutes prior to hepatic ischemia Zinc(II) Deuteroporphyrin IX-2,4-bisethyleneglycol (ZnDBG) (Alexis Biochemicals), a heme oxygenase-1 inhibitor was injected i.p. at a dose of 10 mg/Kg in a volume of 50 μL at 30 minutes prior to the induction of hepatic ischemia.\nAll of the mice utilized in the present studies were C57BL6/J at 8-10 weeks of age obtained from the Jackson Laboratories (Bar Harbor, Me.). In additional experiments of hepatic I/R injury we utilized mice completely deficient (−/−) in endothelial nitric oxide synthase (eNOS). eNOS−/− mice were originally generously donated from Dr. Paul Huang (Mass. General Hospital) and generated in our breeding colony at LSU-Health Sciences Center. eNOS−/− mice were utilized at 8-10 weeks of age.\nThe hepatic I/R protocol is depicted in FIG. 6A and has been described previously (Hines et al., Biochem Biophys Res Commun 284:972-976, 2001; Hines et al., Am J Physiol Gastrointest Liver Physiol 284:G536-545, 2001). Mice were anesthetized with the combination of ketamine (100 mg/kg) and zylazine (8 mg/kg) and a midline laparotomy was performed to expose the liver. Mice were then injected with heparin (100 μg/kg, i.p.) to prevent blood clotting. The left lateral and median lobes of the liver were rendered ischemic by completely clamping the hepatic artery and the portal vein using microaneurysm clamps. This experimental model results in a segmental (70%) hepatic ischemia. This method of partial ischemia prevents mesenteric venous congestion by allowing portal decompression throughout the right and caudate lobes of the liver. The liver was then repositioned in the peritoneal cavity in its original location for 45 minutes. The liver was kept moist using gauze soaked in 0.9% normal saline. In addition, body temperature was maintained at 37° C. using a heat lamp and monitoring body temperature with a rectal temperature probe. Sham surgeries were identical except that hepatic blood flow was not reduced with a microaneurysm clamp. The duration of hepatic ischemia was 45 minutes in all experiments, following which the microaneurysm clamps were removed. The duration of hepatic reperfusion was 5 hours in the studies of serum liver transaminase levels (i.e., AST or ALT) and 24 hours for the studies of liver histopathology (such as hepatocellular infarction).\nSerum samples were analyzed for aspartate aminotransferase (AST) and alanine aminotransferase (ALT) using a spectrophotometric method (Sigma Chemical Co., St. Louis, Mo.) (Harada et al., Proc Natl Acad Sci USA 100:739-744, 2003). These enzymes are liver specific and are released from the liver during injury (Hines et al., Biochem Biophys Res Commun 284:972-976, 2001; Hines et al., Am J Physiol Gastrointest Liver Physiol 284:G536-545, 2001). […]"}, "[5]": {"system": "U46619-induced normoxic pulmonary hypertension", "type": "in vivo", "conditions": "normoxic, U46619 infusion, nebulized nitrite, n=6", "description": "This is a simple, inexpensive, and widely available clinical nebulizer system, though other systems could be used.\nSix additional lambs were studied in order to evaluate the effects of nitrite nebulization on normoxic pulmonary hypertension. Stable normoxic pulmonary hypertension was induced by an infusion of a stable endoperoxide analog of thromboxane (U46619-9,11-dideoxy-11α-epoxymethano-prostaglandin F2α, Cayman Chemicals, Ann Arbor, Mich.). The drug was dissolved in saline and was administered at a rate of 2 μg/kg/min into the femoral venous catheter for 30 minutes. Nitrite was nebulized for inhalation during the last 20 minutes of the infusion (FIG. 11)."}},
  "data": [
    {"smiles": "O=NO", "note": "[sodium nitrite]", "values": [
      {"measurement": "nitrite concentration that stimulated vasodilation of aortic ring preparations", "setting": "[1]; Furchgott et al. 1953", "value": 100, "unit": "µM"},
      {"measurement": "levels of nitrite shown to vasodilate in vitro", "setting": "[1]; literature", "value": "> 100,000 nM"},
      {"measurement": "concentration at 5 min", "setting": "[2]; both, 36 μmol/min, nitrite level in the ipsilateral antecubital vein (regional forearm nitrite concentration), 36 μmol/min into brachial artery, 5 min, 18 healthy subjects", "value": "~222000", "unit": "nM"},
      {"measurement": "concentration at 5 min", "setting": "[2]; 0.36 μmol/min, mean venous nitrite level after low-dose infusion, at rest, low dose, five-minute infusion, baseline 176±17", "value": "2560 ± 462", "unit": "nM"},
      {"measurement": "concentration at 5 min", "setting": "[2]; 360 nmoles per minute, forearm nitrite concentration, low dose, at rest, dose reduced 2-logs (360 nmoles per minute)", "value": "~2000", "unit": "nM"},
      {"measurement": "increase in blood flow, low dose", "setting": "[3]; 360 nmoles per minute", "value": "about 22%"},
      {"measurement": "forearm blood flow after low-dose nitrite infusion", "setting": "[3]; 400 nmol/mL at 1 mL/min for five minutes, 10 subjects, baseline 3.49±0.24", "value": "4.51±0.33", "unit": "ml/min per 100 mL tissue"},
      {"measurement": "systemic level of nitrite (contralateral arm)", "setting": "[3]; 36 μmol/min into brachial artery", "value": 16, "unit": "µM"},
      {"measurement": "decrease of mean blood pressure", "setting": "[3]; 36 μmol/min into brachial artery, systemic nitrite 16 μM", "value": "approximately 7 mm Hg"},
      {"measurement": "venous hemoglobin oxygen saturation, pO2 and pH versus pre-infusion values", "setting": "[3]; 36 μmol/min, 5 min, at rest", "value": "significantly increased"},
      {"measurement": "forearm nitrite concentration, low dose, at rest", "setting": "[3]; dose reduced 2-logs (360 nmoles per minute)", "value": 2, "unit": "µM"},
      {"measurement": "forearm nitrite concentration, low dose, during exercise", "setting": "[3]; dose reduced 2-logs, exercise", "value": 0.9, "unit": "µM"},
      {"measurement": "venous nitrite level after low-dose infusion, during exercise", "setting": "[3]; low dose, exercise", "value": "909 ± 113", "unit": "nM"},
      {"measurement": "forearm blood flow 30 minutes after cessation of nitrite infusion", "setting": "[3]; saline for 30 min after infusion, pre-nitrite value 3.94±0.38", "value": "4.79±0.37", "unit": "mL/min per 100 mL tissue"},
      {"measurement": "systemic blood pressure 30 minutes after cessation of nitrite infusion", "setting": "[3]; saline for 30 min after infusion, pre-nitrite value 89.2±3.5", "value": "82.1±3.7", "unit": "mm Hg"},
      {"measurement": "calculated blood level at which a protective effect was observed", "setting": "[4]; 1.2 nmoles added nitrite", "value": 600, "unit": "nM"},
      {"measurement": "calculated systemic concentration of peak effect on AST and ALT", "setting": "[4]; 48 nmoles added nitrite, 2 mL blood volume", "value": 24, "unit": "µM"},
      {"measurement": "hepatocellular injury (histopathology) at 24 hours of reperfusion", "setting": "[4]; 24 μM (48 nmoles), versus saline and nitrate treated animals", "value": "significantly reduced"},
      {"measurement": "hepatocellular apoptosis (TUNEL)", "setting": "[4]; 45 minutes ischemia, 24 hours reperfusion", "value": "significantly (p<0.001) attenuated"},
      {"measurement": "tissue injury in mice pre-treated with ZnDPBG (serum AST)", "setting": "[4]; heme oxygenase 1 inhibitor pre-treatment, nitrite 24 μM", "value": "significantly limited tissue injury"},
      {"measurement": "near-physiological nitrite concentration with highly significant protective effects", "setting": "[4]; hepatic I/R", "value": 0.6, "unit": "μM"},
      {"measurement": "serum elevations of liver transaminases AST and ALT", "setting": "[4]; intraperitoneal during hepatic ischemia, 45 min ischemia, 5 h reperfusion, nitrite 1.2-480 nmoles, nitrate 48 nmoles", "value": "dose-dependently limited"},
      {"measurement": "cytoprotection in eNOS deficient mice (serum AST)", "setting": "[4]; mouse, in vivo", "value": "significant nitrite cytoprotection"},
      {"measurement": "decrease in pulmonary artery pressure from infusion baseline", "setting": "[5]", "value": "23±6", "unit": "%"}
    ]}
  ]
}
